In ChEMBL document CHEMBL5050844 (2019):

What was measured:
Format in all cases: functional, T cell line
[1] = Induction of anti-CD3/CD28 antibodies-stimulated human T cell activation at 4 uM assessed fold increase in IL-2 secretion measured by ELISA assay
[2] = Induction of anti-CD3/CD28 antibodies-stimulated human T cell activation at 1 uM assessed fold increase in IL-2 secretion measured by ELISA assay
[3] = Induction of anti-CD3/CD28 antibodies-stimulated human T cell activation at 0.3 uM assessed fold increase in IL-2 secretion measured by ELISA assay
[4] = Induction of anti-CD3 antibodies-stimulated human T cell activation at 8 uM assessed fold increase in IL-2 secretion measured by ELISA assay; note: reference of the scale not given here
[5] = Induction of anti-CD3 antibodies-stimulated human T cell activation at 1 uM assessed fold increase in IL-2 secretion measured by ELISA assay; note: reference of the scale not given here
[6] = Induction of anti-CD3/CD28 antibodies-stimulated human T cell activation at 4 uM assessed fold increase in CD25 expression measured by ELISA assay
[7] = Induction of anti-CD3/CD28 antibodies-stimulated human T cell activation at 1 uM assessed fold increase in CD25 expression measured by ELISA assay
[8] = Induction of anti-CD3/CD28 antibodies-stimulated human T cell activation at 0.3 uM assessed fold increase in CD25 expression measured by ELISA assay
[9] = Induction of anti-CD3 antibodies-stimulated human T cell activation at 8 uM assessed fold increase in CD25 expression measured by ELISA assay; note: reference of the scale not given here
[10] = Induction of anti-CD3 antibodies-stimulated human T cell activation at 1 uM assessed fold increase in CD25 expression measured by ELISA assay; note: reference of the scale not given here

| SMILES | fold change (FC) [1] | fold change (FC) [2] | fold change (FC) [3] | fold change (FC) [4] | fold change (FC) [5] | fold change (FC) [6] | fold change (FC) [7] | fold change (FC) [8] | fold change (FC) [9] | fold change (FC) [10] | fold change (FC) ([1]; 4 µM) | fold change (FC) ([2]; 1 µM) | fold change (FC) ([3]; 0.3 µM) | fold change (FC) ([5]; 1 µM) | fold change (FC) ([9]; 8 µM) |
| --- | --- | --- | --- | --- | --- | --- | --- | --- | --- | --- | --- | --- | --- | --- | --- |
| C[C@H](Sc1nncn1C)c1cccc(NC(=O)c2cc(C(C)(C)O)c(Cl)cn2)c1 | 1.01 | 1.01 | 1.01 | <=0.05 | <=0.05 | 1.01 | 1.01 | 1.01 | 0.601 | <=0.6 | – | – | – | – | – |
| Cc1cccc2nc(C(=O)Nc3cccc([C@H](C)Sc4nncn4C)c3)ccc12 | >=7.5 | 5 | 2.51 | 0.101 | <=0.05 | 1.01 | 1.01 | 1.01 | 0.801 | 0.801 | – | – | – | – | – |
| C[C@@H](Cc1nncn1C)c1cccc(NC(=O)c2cc(C3CC3)cc(C(F)(F)F)n2)c1 | 1.01 | 1.01 | 1.01 | 0.101 | 0.051 | 1.01 | 1.01 | 1.01 | 0.601 | 0.601 | – | – | – | – | – |
| C[C@H](Cc1nncn1C)c1cccc(NC(=O)c2cc(C(C)(C)O)c(Cl)cn2)c1 | 5 | 1.01 | 2.51 | 0.101 | 0.051 | >=1.76 | 1.31 | 1.01 | <=0.6 | <=0.6 | – | – | – | – | – |
| C[C@H](Cc1nncn1C)c1cccc(NC(=O)c2cncc(C(F)(F)F)n2)c1 | 5 | 2.51 | 1.01 | 0.051 | 0.051 | >=1.76 | >=1.76 | >=1.76 | >=1.001 | 0.601 | – | – | – | – | – |
| C[C@H](Sc1nncn1C)c1cccc(NC(=O)c2cc3cc(OCc4ccn[nH]4)ccc3cn2)c1 | 2.51 | 1.01 | 1.01 | 0.101 | 0.051 | 1.01 | <=1 | <=1 | <=0.6 | <=0.6 | – | – | – | – | – |
| C[C@H](Cc1nncn1C)c1cccc(NC(=O)c2cc(C(=O)N3C[C@@H](O)C[C@H]3C)ccn2)c1 | <=1 | <=1 | <=1 | 0.101 | 0.101 | 1.51 | 1.01 | 1.01 | <=0.6 | <=0.6 | – | – | – | – | – |
| C[C@H](Cc1nncn1C)c1cccc(NC(=O)c2coc(C(F)(F)F)n2)c1 | 1.01 | 1.01 | <=1 | 0.101 | 0.051 | 1.01 | 1.01 | 1.01 | 0.801 | 0.601 | – | – | – | – | – |
| C[C@H](Sc1nncn1C)c1cccc(NC(=O)c2cc3cc(OCC(=O)NCCN)ccc3cn2)c1.Cl | 1.01 | <=1 | <=1 | <=0.05 | <=0.05 | 1.01 | <=1 | <=1 | 0.601 | 0.601 | – | – | – | – | – |
| Cn1cnnc1[C@H](F)[C@@](C)(F)c1cccc(N2Cc3c(cc(C4CC4)cc3C(F)(F)F)C2=O)c1 (single isomer, unassigned; 483) | 1.01 | 1.01 | <=1 | 0.051 | 0.051 | 1.01 | 1.01 | 1.01 | 0.801 | 0.601 | – | – | – | – | – |
| Cc1ccnn1CC(C)c1cccc(NC(=O)c2cccc(C(F)(F)F)n2)c1 (stereo not given) | 1.01 | <=1 | <=1 | 0.051 | 0.051 | 1.51 | 1.31 | 1.51 | <=0.6 | <=0.6 | – | – | – | – | – |
| CNS(=O)(=O)c1cc(C(=O)Nc2cccc([C@H](C)Cc3nncn3C)c2)nc(C(F)(F)F)c1 | <=1 | 1.01 | 1.01 | >=0.201 | 0.151 | 1.01 | 1.01 | 1.01 | >=1.001 | 0.801 | – | – | – | – | – |
| C[C@H](Sc1nncn1C)c1cccc(NC(=O)c2ccnc(C(F)(F)F)n2)c1 | 1.01 | 1.01 | 1.01 | 0.051 | <=0.05 | 1.01 | 1.01 | 1.01 | 0.801 | 0.601 | – | – | – | – | – |
| Cc1ccc(C(=O)Nc2cccc(C(C)Cc3nccn3C)c2)nc1C1CC1 (stereo in doubt; 214) | – | – | – | 0.051 | – | 1.01 | <=1 | <=1 | – | <=0.6 | >=7.5 | >=7.5 | >=7.5 | 0.051 | <=0.6 |
| C[C@H](Sc1nncn1C)c1ccc(F)c(NC(=O)c2cccc(C(F)(F)F)n2)c1 | 2.51 | 1.01 | 1.01 | 0.051 | <=0.05 | 1.01 | 1.01 | <=1 | <=0.6 | <=0.6 | – | – | – | – | – |
| C[C@H](Cc1nocc1C(F)(F)F)c1cccc(N2Cc3c(cc(C(=O)N4CC[C@H](O)C4)cc3C(F)(F)F)C2=O)c1 | 2.51 | 1.01 | 1.01 | >=0.201 | 0.051 | 1.31 | 1.01 | 1.01 | >=1.001 | 0.601 | – | – | – | – | – |
| CN1CCN(c2cc3c(c(C(F)(F)F)c2)CN(c2cccc([C@@](C)(F)C(F)(F)c4nncn4C)c2)C3=O)CC1 | 2.51 | 1.01 | 1.01 | 0.151 | 0.051 | 1.01 | 1.01 | 1.01 | >=1.001 | 0.601 | – | – | – | – | – |
